The values that follow come from patent US7417041B2, “Imidazopyrimidines as transforming growth factor (TGF) inhibitors” (Pfizer Inc., priority 2003, dated 2008).

The assay deals with T1, TβRI (Homo sapiens, UniProt P36897).
T1 construct: using either the kinase domain of ALK5 with Smad3 as substrate; GST
T1 sequence (P36897 205-495 limits assumed): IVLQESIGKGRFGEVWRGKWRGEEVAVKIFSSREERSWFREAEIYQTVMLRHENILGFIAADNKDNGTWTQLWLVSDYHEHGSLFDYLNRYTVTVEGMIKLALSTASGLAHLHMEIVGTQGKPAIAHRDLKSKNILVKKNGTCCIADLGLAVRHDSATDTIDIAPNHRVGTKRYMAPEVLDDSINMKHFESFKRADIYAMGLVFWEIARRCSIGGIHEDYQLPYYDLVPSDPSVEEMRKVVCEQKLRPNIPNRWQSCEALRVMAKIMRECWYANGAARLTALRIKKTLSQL
Nature of the assay: ALK-5 (TβRI) kinase assay. To be noted: read-out: in vitro IC50 value against TβRI. The assay is classed as biochemical. How it is done: ALK-5 (TβRI) Kinase Assay Protocol
The kinase assays were performed with 65 nM GST-ALK5 and 84 nM GST-Smad3 in 50 mM HEPES, 5 mM MgCl2, 1 mM CaCl2, 1 mM dithiothreitol, and 3_M ATP. Reactions were incubated with 0.5_Ci of [33 P]ATP for 3 h at 30° C. Phosphorylated protein was captured on P-81 paper (Whatman, Maidstone, England), washed with 0.5% phosphoric acid, and counted by liquid scintillation. Alternatively, Smad3 or Smad1 protein was also coated onto FlashPlate Sterile Basic Microplates (PerkinElmer Life Sciences, Boston, Mass.). Kinase assays were then performed in Flash-Plates with same assay conditions using either the kinase domain of ALK5 with Smad3 as substrate or the kinase domain of ALK6 (BMP receptor) with Smad1 as substrate. Plates were washed three times with phosphate buffer and counted by TopCount (Packard Bio-science, Meriden, Conn.). (Laping, N. J. et al. Molecular Pharmacology 62:58-64 (2002)).

As a reminder, the IC50 is the concentration that inhibits the measured activity by half. For the compound `Cc1cccc(-c2c(-c3ccc4nnn(C)c4c3)nc3ncccn23)n1` [Example 15, 1-Methyl-6-[3-(6-methyl-pyridin-2-yl)-imidazo[1,2-a]pyrimidin-2-yl]-1H-benzotriazole], the IC50 was 0.253 µM.
